According to ChEMBL document CHEMBL3588758, “Structure-Affinity Relationships (SARs) and Structure-Kinetics Relationships (SKRs) of Kv11.1 Blockers” (J Med Chem, 2015):

Assays:
Kv11.1 (KCNH2, hERG) [1] = molecular target: T1, Kv11.1 (KCNH2, hERG) (Homo sapiens, UniProt Q12809); test: in vitro
Kv11.1 (KCNH2, hERG) [2] = molecular target: T1, Kv11.1 (KCNH2, hERG); test: in vitro; remark: listed apart in the source
Kv11.1 (KCNH2, hERG) [3] = molecular target: T1, Kv11.1 (KCNH2, hERG); test: in vitro; remark: listed apart in the source
[4] = molecular target: T2, Voltage-gated inwardly rectifying potassium channel KCNH2 (Homo sapiens, UniProt Q12809)
[5] = molecular target: T2, Voltage-gated inwardly rectifying potassium channel KCNH2; remark: listed apart in the source
[6] = molecular target: T2, Voltage-gated inwardly rectifying potassium channel KCNH2; remark: listed apart in the source
Description: Inhibition of human Kv11.1 expressed in HEK293 cells assessed as inhibition of channel tail current at holding potential -80 mV by whole cell voltage clamp assay

T1 sequence (Q12809 whole entry): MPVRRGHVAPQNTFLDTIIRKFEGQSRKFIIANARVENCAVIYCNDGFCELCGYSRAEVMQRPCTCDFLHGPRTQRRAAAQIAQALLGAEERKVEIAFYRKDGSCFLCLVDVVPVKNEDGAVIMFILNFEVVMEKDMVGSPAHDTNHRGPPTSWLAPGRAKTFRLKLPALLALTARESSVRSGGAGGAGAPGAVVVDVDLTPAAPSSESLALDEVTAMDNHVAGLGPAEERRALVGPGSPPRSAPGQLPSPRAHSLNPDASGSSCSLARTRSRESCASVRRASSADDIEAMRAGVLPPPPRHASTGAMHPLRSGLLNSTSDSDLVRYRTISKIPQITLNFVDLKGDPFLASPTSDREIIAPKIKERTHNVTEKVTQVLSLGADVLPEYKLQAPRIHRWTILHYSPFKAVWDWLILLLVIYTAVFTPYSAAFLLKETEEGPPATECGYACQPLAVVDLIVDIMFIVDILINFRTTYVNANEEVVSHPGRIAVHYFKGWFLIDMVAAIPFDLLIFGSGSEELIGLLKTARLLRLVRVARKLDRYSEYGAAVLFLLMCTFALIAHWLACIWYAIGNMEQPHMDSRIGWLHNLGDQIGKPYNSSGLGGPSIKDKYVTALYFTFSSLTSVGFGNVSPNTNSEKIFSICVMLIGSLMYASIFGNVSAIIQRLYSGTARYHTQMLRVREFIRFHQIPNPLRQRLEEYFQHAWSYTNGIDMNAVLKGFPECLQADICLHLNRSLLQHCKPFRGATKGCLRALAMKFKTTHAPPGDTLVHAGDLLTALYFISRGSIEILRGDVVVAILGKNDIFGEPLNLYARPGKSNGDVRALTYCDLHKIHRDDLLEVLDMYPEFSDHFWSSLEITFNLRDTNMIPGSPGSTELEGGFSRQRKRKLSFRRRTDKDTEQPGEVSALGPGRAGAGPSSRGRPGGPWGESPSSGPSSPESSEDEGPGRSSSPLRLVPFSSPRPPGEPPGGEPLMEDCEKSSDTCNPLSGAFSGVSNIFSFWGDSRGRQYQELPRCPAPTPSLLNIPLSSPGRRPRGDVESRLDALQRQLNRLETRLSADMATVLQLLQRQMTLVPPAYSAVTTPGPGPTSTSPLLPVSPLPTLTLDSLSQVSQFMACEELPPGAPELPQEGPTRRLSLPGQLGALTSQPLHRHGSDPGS
T2 sequence (Q12809 whole entry): as above

SMILES	kon (Kv11.1 (KCNH2, hERG) [1]; hek293)	residence time (Kv11.1 (KCNH2, hERG) [2]; hek293)	koff (Kv11.1 (KCNH2, hERG) [3]; hek293)	Ki [4]	Kd [5]	kon (Kv11.1 (KCNH2, hERG) [1]; hek293, probe [3H]dofetilide)	residence time (Kv11.1 (KCNH2, hERG) [2]; hek293, probe [3H]dofetilide)	koff (Kv11.1 (KCNH2, hERG) [3]; hek293, probe [3H]dofetilide)	IC50 [6]
CCCCCCc1cccc(CCCCCC)[n+]1C	333000 M⁻¹ s⁻¹	4.3 min	0.00383 s⁻¹	12 nM	12 nM	–	–	–	–
CCN(CCOc1ccc([N+](=O)[O-])cc1)CCc1ccc([N+](=O)[O-])cc1	–	–	–	4.2 nM	3 nM	2.5e+06 M⁻¹ s⁻¹	3.8 min	0.00433 s⁻¹	–
CN(CCCCOc1ccc([N+](=O)[O-])cc1)CCc1ccc([N+](=O)[O-])cc1	1.07e+07 M⁻¹ s⁻¹	3.8 min	0.00433 s⁻¹	1.6 nM	0.73 nM	–	–	–	–
C(#Cc1cccc(C#Cc2ccc(-c3ccccc3)cc2)n1)c1ccc(-c2ccccc2)cc1	–	–	–	> 100000 nM	–	–	–	–	–
CCCCCCCCCc1cccc(CCCCCCCCC)[n+]1C	–	–	–	3.4 nM	4 nM	300000 M⁻¹ s⁻¹	14 min	0.00115 s⁻¹	–
CC(=O)N(CCOc1ccc([N+](=O)[O-])cc1)CCc1ccc([N+](=O)[O-])cc1	–	–	–	251 nM	132 nM	163000 M⁻¹ s⁻¹	0.56 min	0.03 s⁻¹	–
CCCCCCCCCCc1cccc(CCCCCCCCCC)[n+]1C	28300 M⁻¹ s⁻¹	16 min	0.00107 s⁻¹	17 nM	37 nM	–	–	–	–
CCCCCCCc1cccc(CCCCCCC)[n+]1C	–	–	–	0.28 nM	0.44 nM	4.17e+06 M⁻¹ s⁻¹	10 min	0.00167 s⁻¹	–
CCCCCCCCCCC#Cc1cccc(C#CCCCCCCCCCC)[n+]1C	–	–	–	1180 nM	4260 nM	550 M⁻¹ s⁻¹	8.3 min	0.002 s⁻¹	–
CN(CCOc1ccc([N+](=O)[O-])cc1)CCc1ccc([N+](=O)[O-])cc1	683000 M⁻¹ s⁻¹	1.2 min	0.0137 s⁻¹	24 nM	20 nM	–	–	–	–
COc1cccc(-c2ccc(C#Cc3cccc(C#Cc4ccc(-c5cccc(OC)c5)cc4)[n+]3C)cc2)c1	6170 M⁻¹ s⁻¹	21 min	0.000783 s⁻¹	176 nM	125 nM	–	–	–	–
C[n+]1c(C#Cc2ccc(-c3cccc(Cl)c3)cc2)cccc1C#Cc1ccc(-c2cccc(Cl)c2)cc1	1380 M⁻¹ s⁻¹	91 min	0.000183 s⁻¹	139 nM	135 nM	–	–	–	–
C[N+]1(CCc2ccccc2)CCC(C(=O)c2ccc(Cl)cc2)CC1 (configuration not stated)	800000 M⁻¹ s⁻¹	2.9 min	0.00583 s⁻¹	48 nM	18 nM	–	–	–	–
C[n+]1c(C#Cc2ccc(-c3ccc(Cl)cc3)cc2)cccc1C#Cc1ccc(-c2ccc(Cl)cc2)cc1	2670 M⁻¹ s⁻¹	63 min	0.000267 s⁻¹	71 nM	100 nM	–	–	–	–
Cc1ccc(-c2ccc(C#Cc3cccc(C#Cc4ccc(-c5ccc(C)cc5)cc4)[n+]3C)cc2)cc1	–	–	–	303 nM	440 nM	1430 M⁻¹ s⁻¹	30 min	0.00055 s⁻¹	–
CCCCCCCCCCCCc1cccc(CCCCCCCCCCCC)[n+]1C	–	–	–	108 nM	153 nM	3000 M⁻¹ s⁻¹	36 min	0.000467 s⁻¹	–
O=C(N(CCOc1ccc([N+](=O)[O-])cc1)CCc1ccc([N+](=O)[O-])cc1)C(F)(F)F	41700 M⁻¹ s⁻¹	1.6 min	0.0102 s⁻¹	355 nM	247 nM	–	–	–	–
CCCN(CC)CC#Cc1ccc(C)cc1	–	–	–	1200 nM	637 nM	5170 M⁻¹ s⁻¹	6.7 min	0.0025 s⁻¹	–
O=[N+]([O-])c1ccc(CCNCCOc2ccc([N+](=O)[O-])cc2)cc1	90000 M⁻¹ s⁻¹	3.7 min	0.0045 s⁻¹	47 nM	53 nM	–	–	–	–
C[n+]1c(C#Cc2ccc(-c3ccc(O)cc3)cc2)cccc1C#Cc1ccc(-c2ccc(O)cc2)cc1	–	–	–	153 nM	103 nM	8500 M⁻¹ s⁻¹	19 min	0.000883 s⁻¹	–
C[n+]1c(CCc2ccc(-c3ccccc3)cc2)cccc1CCc1ccc(-c2ccccc2)cc1	–	–	–	63 nM	60 nM	26700 M⁻¹ s⁻¹	10 min	0.00163 s⁻¹	–
COc1ccc(CCN(C)CCOc2ccccc2)cc1	–	–	–	944 nM	591 nM	9330 M⁻¹ s⁻¹	3.3 min	0.005 s⁻¹	–
CCCCCCC[N+](CC)(CC)CC#Cc1ccc(Cl)cc1	2.83e+06 M⁻¹ s⁻¹	7.7 min	0.00217 s⁻¹	1.8 nM	1.2 nM	–	–	–	–
N#CCN(CCOc1ccc([N+](=O)[O-])cc1)CCc1ccc([N+](=O)[O-])cc1	76700 M⁻¹ s⁻¹	2.5 min	0.00667 s⁻¹	203 nM	99 nM	–	–	–	–
CCCCCCCCc1cccc(CCCCCCCC)n1	4.67 M⁻¹ s⁻¹	19 min	0.000867 s⁻¹	36900 nM	191000 nM	–	–	–	–
O=C(c1ccc(Cl)cc1)C1CCN(CCc2ccc(Cl)c(Cl)c2)CC1	350000 M⁻¹ s⁻¹	2.6 min	0.0065 s⁻¹	54 nM	36 nM	–	–	–	–
O=C(c1ccccc1)N1CCN(CCc2ccccc2)CC1	–	–	–	5420 nM	1810 nM	4500 M⁻¹ s⁻¹	2.2 min	0.00767 s⁻¹	–
C[n+]1c(C#Cc2ccc(-c3ccccc3)cc2)cccc1C#Cc1ccc(-c2ccccc2)cc1	1250 M⁻¹ s⁻¹	105 min	0.000158 s⁻¹	86 nM	132 nM	–	–	–	107 nM
Cc1ccccc1-c1ccc(C#Cc2cccc(C#Cc3ccc(-c4ccccc4C)cc3)[n+]2C)cc1	5830 M⁻¹ s⁻¹	14 min	0.00118 s⁻¹	577 nM	203 nM	–	–	–	–
CN(CCOc1ccc(Cl)c(Cl)c1)CCc1ccc(Cl)c(Cl)c1	–	–	–	5570 nM	5810 nM	1030 M⁻¹ s⁻¹	5.3 min	0.00317 s⁻¹	–
